Laboratory results as given in ChEMBL document CHEMBL1156506, “Changes to the HIV long terminal repeat and to HIV integrase differentially impact HIV integrase assembly, activity, and the binding of strand transfer inhibitors” (J Biol Chem, 2007).

What was measured:
[1] = system: Human immunodeficiency virus; experiment: Binding affinity to HIV wild type integrase U5 GACA/CT LTR relative to wild type LTR; conditions: tested as the 3H-labelled form
[2] = system: Human immunodeficiency virus; experiment: Inhibition of HIV wild type integrase assessed as strand transfer activity using U5 GdC LTR by scintillation proximity assay relative to wild type LTR; design: scale not given: the % may be the effect or the level left; conditions: tested as the 3H-labelled form

Question: How did the Activity [1] turn out when `Cn1c(N2CCCCS2(=O)=O)nc(C(=O)NCc2ccc(F)cc2)c(O)c1=O` [BMS-707035] was run?
Answer: The Activity was less than 25%.

Question: What about the Activity [2] of the same compound?
Answer: Its Activity is 10%.
